One assay has as its target CDK4 (Homo sapiens (Human), UniProt P11802). Nature of the assay: In vitro kinase inhibition, luminescence (ADP-Glo) with retinoblastoma substrate. The assay is classed as biochemical. Background: ADP-Glo first removes unused ATP, then detects ADP through luciferase.
The next assay concerns the target CDK6 (Homo sapiens (Human), UniProt Q00534). Nature of the assay: biochemical. The format is biochemical.
For a further assay, the target named is FMS kinase (Homo sapiens (Human), UniProt P07333). Nature of the assay: LanthaScreen kinase assay (ATP, fluorescent-PolyGT substrate, TR-FRET). The assay is classed as biochemical. (In general: TR-FRET usually uses a lanthanide donor and a delayed reading to cut background.)
A further assay has as its system MCF-7. Nature of the assay: Cancer cell proliferation assay, single agent. The assay is classed as cell-based. To be noted: Homo sapiens.
In a further assay the target is PI3Kδ kinase (Homo sapiens (Human), UniProt O00329). Description: PI3Kδ kinase ADP-Glo assay (Reaction Biology Corporation). As to conditions: read-out: PI3Kδ IC50.
A further assay concerns DU4475. Nature of the assay: Cancer cell proliferation assay, single agent. The assay is classed as cell-based. As to conditions: Homo sapiens.
Setting [1] is: MCF7, MCF-7 cells, treated for 24-168 hours, read-out: IC50 (nM) MCF-7.

Where two headings read alike, the source gives them in different places.

Sequence of FMS kinase (P07333 20-972): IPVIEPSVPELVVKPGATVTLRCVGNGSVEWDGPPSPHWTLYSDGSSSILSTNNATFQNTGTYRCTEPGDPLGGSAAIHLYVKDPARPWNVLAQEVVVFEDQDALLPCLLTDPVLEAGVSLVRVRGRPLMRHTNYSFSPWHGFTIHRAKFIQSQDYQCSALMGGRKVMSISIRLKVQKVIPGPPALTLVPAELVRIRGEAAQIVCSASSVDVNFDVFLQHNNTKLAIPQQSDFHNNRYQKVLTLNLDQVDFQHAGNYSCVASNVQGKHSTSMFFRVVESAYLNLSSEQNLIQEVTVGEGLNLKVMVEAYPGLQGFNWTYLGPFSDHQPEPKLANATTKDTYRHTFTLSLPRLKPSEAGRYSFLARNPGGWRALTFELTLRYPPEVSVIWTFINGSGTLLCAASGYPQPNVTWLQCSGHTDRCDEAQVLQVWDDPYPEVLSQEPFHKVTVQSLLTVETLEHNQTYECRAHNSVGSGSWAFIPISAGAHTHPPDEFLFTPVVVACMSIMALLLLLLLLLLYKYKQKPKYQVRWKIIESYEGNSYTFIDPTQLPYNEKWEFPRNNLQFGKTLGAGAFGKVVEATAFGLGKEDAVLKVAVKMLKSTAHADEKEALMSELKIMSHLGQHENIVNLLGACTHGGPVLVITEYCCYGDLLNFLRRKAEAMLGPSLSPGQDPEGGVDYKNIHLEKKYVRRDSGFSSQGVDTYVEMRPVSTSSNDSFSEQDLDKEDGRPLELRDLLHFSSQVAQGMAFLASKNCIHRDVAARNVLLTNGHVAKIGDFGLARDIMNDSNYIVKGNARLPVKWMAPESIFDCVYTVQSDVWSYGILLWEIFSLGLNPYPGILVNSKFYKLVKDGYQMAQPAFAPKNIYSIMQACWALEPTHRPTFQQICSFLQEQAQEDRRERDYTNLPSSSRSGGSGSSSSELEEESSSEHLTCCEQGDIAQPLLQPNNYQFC
Sequence of CDK4 (P11802 whole entry): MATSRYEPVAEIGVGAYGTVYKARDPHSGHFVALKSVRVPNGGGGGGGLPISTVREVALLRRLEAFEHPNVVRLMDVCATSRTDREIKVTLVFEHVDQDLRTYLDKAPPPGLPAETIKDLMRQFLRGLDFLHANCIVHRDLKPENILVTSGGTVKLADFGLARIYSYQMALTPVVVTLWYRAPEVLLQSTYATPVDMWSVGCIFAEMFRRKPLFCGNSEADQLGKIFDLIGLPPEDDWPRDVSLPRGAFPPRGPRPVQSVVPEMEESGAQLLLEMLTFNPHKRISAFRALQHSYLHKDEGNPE
Sequence of CDK4 (P24385 whole entry partner): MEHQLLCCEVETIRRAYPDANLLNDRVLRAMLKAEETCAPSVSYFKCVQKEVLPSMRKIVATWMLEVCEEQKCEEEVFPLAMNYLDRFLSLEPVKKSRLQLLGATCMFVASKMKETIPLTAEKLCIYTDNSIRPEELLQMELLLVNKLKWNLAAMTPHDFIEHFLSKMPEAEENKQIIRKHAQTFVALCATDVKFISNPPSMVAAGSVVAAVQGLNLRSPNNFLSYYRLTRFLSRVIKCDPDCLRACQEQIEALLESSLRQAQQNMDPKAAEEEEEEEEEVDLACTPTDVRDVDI
Sequence of PI3Kδ kinase (O00329 whole entry): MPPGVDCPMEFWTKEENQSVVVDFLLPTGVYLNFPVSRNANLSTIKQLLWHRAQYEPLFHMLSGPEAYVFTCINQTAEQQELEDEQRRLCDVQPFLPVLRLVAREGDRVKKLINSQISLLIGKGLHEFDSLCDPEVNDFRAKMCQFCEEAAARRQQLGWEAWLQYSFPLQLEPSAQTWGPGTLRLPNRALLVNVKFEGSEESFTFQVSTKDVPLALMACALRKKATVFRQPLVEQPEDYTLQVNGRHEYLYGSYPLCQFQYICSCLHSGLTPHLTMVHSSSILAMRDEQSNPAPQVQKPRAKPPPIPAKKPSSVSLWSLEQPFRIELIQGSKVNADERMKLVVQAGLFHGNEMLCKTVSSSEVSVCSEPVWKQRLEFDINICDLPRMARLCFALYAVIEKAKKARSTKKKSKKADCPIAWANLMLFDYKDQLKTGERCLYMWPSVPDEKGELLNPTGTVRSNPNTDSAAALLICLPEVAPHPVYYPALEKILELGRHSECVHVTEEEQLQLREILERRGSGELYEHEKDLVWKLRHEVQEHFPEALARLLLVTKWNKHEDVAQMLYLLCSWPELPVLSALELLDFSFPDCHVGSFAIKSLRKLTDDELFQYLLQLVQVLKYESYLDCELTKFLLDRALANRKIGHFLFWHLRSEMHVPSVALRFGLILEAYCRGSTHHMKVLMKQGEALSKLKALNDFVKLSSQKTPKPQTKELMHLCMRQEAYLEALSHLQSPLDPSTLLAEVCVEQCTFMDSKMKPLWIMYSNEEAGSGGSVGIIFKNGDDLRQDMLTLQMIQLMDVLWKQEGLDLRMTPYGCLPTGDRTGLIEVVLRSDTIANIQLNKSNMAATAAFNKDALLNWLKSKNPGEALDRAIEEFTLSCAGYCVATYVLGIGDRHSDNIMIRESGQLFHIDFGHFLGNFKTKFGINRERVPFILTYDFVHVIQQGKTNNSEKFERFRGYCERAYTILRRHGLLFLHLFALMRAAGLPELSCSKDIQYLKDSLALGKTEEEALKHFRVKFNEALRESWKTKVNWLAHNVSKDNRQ
Sequence of PI3Kδ kinase (P27986 whole entry partner): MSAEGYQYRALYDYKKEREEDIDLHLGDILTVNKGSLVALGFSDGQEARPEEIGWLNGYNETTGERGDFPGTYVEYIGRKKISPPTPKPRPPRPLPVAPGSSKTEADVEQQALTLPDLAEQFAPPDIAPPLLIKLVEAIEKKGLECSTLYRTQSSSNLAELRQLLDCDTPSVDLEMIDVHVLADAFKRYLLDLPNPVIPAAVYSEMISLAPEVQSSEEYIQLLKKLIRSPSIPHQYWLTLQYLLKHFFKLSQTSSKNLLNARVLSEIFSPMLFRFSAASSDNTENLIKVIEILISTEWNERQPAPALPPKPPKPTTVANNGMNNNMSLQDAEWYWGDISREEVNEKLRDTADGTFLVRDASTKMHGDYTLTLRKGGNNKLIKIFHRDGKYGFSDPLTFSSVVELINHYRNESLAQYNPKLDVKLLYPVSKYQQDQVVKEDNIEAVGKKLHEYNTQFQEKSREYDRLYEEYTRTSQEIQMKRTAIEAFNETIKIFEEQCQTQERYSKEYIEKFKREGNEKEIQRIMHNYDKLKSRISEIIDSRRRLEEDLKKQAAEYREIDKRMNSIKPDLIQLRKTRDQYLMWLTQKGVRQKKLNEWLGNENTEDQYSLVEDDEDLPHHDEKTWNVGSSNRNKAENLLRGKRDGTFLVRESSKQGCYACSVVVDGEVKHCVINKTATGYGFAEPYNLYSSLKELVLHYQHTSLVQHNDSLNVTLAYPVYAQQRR

On to `CC(C)N1CCOc2c(F)cc(-c3nc(Nc4ccc(N5CCN(C(=O)CN(C)C)CC5)cc4)ncc3F)cc21` [Compound 440, 2-(dimethylamino)-1-(4-(4-((5-fluoro-4-(8-fluoro-4-isopropyl-3,4-dihydro-2H-benzo[b][1,4]oxazin-6-yl)pyrimidin-2-yl)amino)phenyl)piperazin-1-yl)ethan-1-one], for which the IC50 – broadly, the concentration that inhibits the measured activity by half – on CDK4 was 0.002 µM; against CDK6, 0.002 µM; on FMS kinase, 0.024 µM; in the assay with MCF-7 (setting [1]), 30 nM; at PI3Kδ kinase it was 35 µM.
Regarding `CC(C)N1CCOc2c(F)cc(-c3nc(Nc4ccc(C5CCN(C(=O)CN(C)C)CC5)cn4)ncc3F)cc21` [Compound 450, 2-(dimethylamino)-1-(4-(6-((5-fluoro-4-(8-fluoro-4-isopropyl-3,4-dihydro-2H-benzo[b][1,4]oxazin-6-yl)pyrimidin-2-yl)amino)pyridin-3-yl)piperidin-1-yl)ethan-1-one], the IC50 against CDK4 is 0.0005 µM; against CDK6, 0.0003 µM; against FMS kinase, 0.214 µM; in the assay with MCF-7 (setting [1]) it was 240 nM; at PI3Kδ kinase, more than 50 µM.
Turning to `CC(C)N1CCOc2c(F)cc(-c3nc(Nc4ccc(N5CCNCC5)nc4)ncc3F)cc21` [Compound 23, 5-fluoro-4-(8-fluoro-4-isopropyl-3,4-dihydro-2H-benzo[b][1,4]oxazin-6-yl)-N-(6-(piperazin-1-yl)pyridin-3-yl)pyrimidin-2-amine], the half-maximal inhibitory concentration (IC50) against FMS kinase was 0.025 µM; with MCF-7 (MCF7, read-out: IC50 (nM) MCF-7) it was less than 10 nM; at PI3Kδ kinase, 4.88 µM.
Regarding `CC(C)N1CCOc2c(F)cc(-c3nc(Nc4ccc(N5CCSCC5)c(F)c4)ncc3F)cc21` [Compound 469, 5-fluoro-4-(8-fluoro-4-isopropyl-3,4-dihydro-2H-benzo[b][1,4]oxazin-6-yl)-N-(3-fluoro-4-thiomorpholinophenyl)pyrimidin-2-amine], the IC50 on FMS kinase is 0.046 µM; in the assay with MCF-7 (setting [1]), 495 nM; on PI3Kδ kinase, more than 30 µM.
Take `CC(C)N1CCOc2c(F)cc(-c3nc(Nc4cnn(C5CCC(O)CC5)c4)ncc3F)cc21` (stereo not shown) [Compound 452, 4-(4-((5-fluoro-4-(8-fluoro-4-isopropyl-3,4-dihydro-2H-benzo[b][1,4]oxazin-6-yl)pyrimidin-2-yl)amino)-1H-pyrazol-1-yl)cyclohexan-1-ol]: the IC50 against CDK4 came to 0.02 µM; at CDK6, 0.045 µM; against FMS kinase, 0.008 µM; in the assay with MCF-7 (setting [1]) it was 50 nM; at PI3Kδ kinase, 0.589 µM.
Taken in the same sequence, the figures for `CC(C)N1CCOc2c(F)cc(-c3nc(Nc4ccc5c(c4)CN(C(=O)CN(C)C)CC5)ncc3F)cc21` [Compound 455, 2-(dimethylamino)-1-(7-((5-fluoro-4-(8-fluoro-4-isopropyl-3,4-dihydro-2H-benzo[b][1,4]oxazin-6-yl)pyrimidin-2-yl)amino)-3,4-dihydroisoquinolin-2(1H)-yl)ethan-1-one] were 0.0045 µM, 0.003 µM, 0.0015 µM, less than 4 nM and 13.1 µM.
For the molecule `CC(C)N1CCOc2c(F)cc(-c3nc(Nc4ccc(C(=O)N5CCC(O)CC5)c(F)c4)ncc3F)cc21` [Compound 458, (2-fluoro-4-((5-fluoro-4-(8-fluoro-4-isopropyl-3,4-dihydro-2H-benzo[b][1,4]oxazin-6-yl)pyrimidin-2-yl)amino)phenyl)(4-hydroxypiperidin-1-yl)methanone], the IC50 was 0.0005 µM against CDK4; 0.01 µM against CDK6; 0.029 µM against FMS kinase; 30 nM in the assay with MCF-7 (setting [1]); 35 nM in the assay with DU4475 (DU-4475, read-out: IC50 (nM) DU4475).
Regarding `CC(C)N1CCOc2c(F)cc(-c3nc(Nc4cc5n(n4)CCN(C)C5)ncc3F)cc21` [Compound 444, N-(5-fluoro-4-(8-fluoro-4-isopropyl-3,4-dihydro-2H-benzo[b][1,4]oxazin-6-yl)pyrimidin-2-yl)-5-methyl-4,5,6,7-tetrahydropyrazolo[1,5-a]pyrazin-2-amine], the half-maximal inhibitory concentration (IC50) against CDK4 is 0.0016 µM; against CDK6 it was 0.0034 µM; on FMS kinase, 0.067 µM; in the assay on MCF-7 (setting [1]) it was 1250 nM; on PI3Kδ kinase, more than 50 µM.
Take `CN1CCC(c2ccc(Nc3ncc(F)c(-c4cc(F)c5c(c4)N(C)CCO5)n3)cc2F)CC1` [Compound 466, 5-fluoro-N-(3-fluoro-4-(1-methylpiperidin-4-yl)phenyl)-4-(8-fluoro-4-methyl-3,4-dihydro-2H-benzo[b][1,4]oxazin-6-yl)pyrimidin-2-amine]: the concentration for half-maximal inhibition (IC50) is 0.004 µM at CDK4; 0.01 µM against CDK6; 0.035 µM against FMS kinase; 105 nM in the assay with MCF-7 (setting [1]); 1.11 µM on PI3Kδ kinase.
With `CC(C)N1CCOc2c(F)cc(-c3nc(Nc4ccc(N5CCN(C(=O)N(C)C)CC5)cn4)ncc3F)cc21` [Compound 453, 4-(6-((5-fluoro-4-(8-fluoro-4-isopropyl-3,4-dihydro-2H-benzo[b][1,4]oxazin-6-yl)pyrimidin-2-yl)amino)pyridin-3-yl)-N,N-dimethylpiperazine-1-carboxamide], the IC50 against CDK4 is 0.012 µM; on CDK6, 0.03 µM; on FMS kinase it was more than 5 µM; in the assay on MCF-7 (setting [1]), 695 nM; on PI3Kδ kinase, more than 50 µM.
In the same order, the values of `CC(C)N1CCOc2c(F)cc(-c3nc(Nc4cc(F)c(C5CCNCC5)cn4)ncc3F)cc21` [Compound 443, 5-fluoro-4-(8-fluoro-4-isopropyl-3,4-dihydro-2H-benzo[b][1,4]oxazin-6-yl)-N-(4-fluoro-5-(piperidin-4-yl)pyridin-2-yl)pyrimidin-2-amine] are 0.003 µM, 0.003 µM, 0.95 µM, 285 nM and more than 50 µM.
In the same order, the values of `CCCN1CCOc2c(F)cc(-c3nc(Nc4ccc(N5CCC(N(C)C)CC5)c(F)c4)ncc3F)cc21` [Compound 468, N-(4-(4-(dimethylamino)piperidin-1-yl)-3-fluorophenyl)-5-fluoro-4-(8-fluoro-4-propyl-3,4-dihydro-2H-benzo[b][1,4]oxazin-6-yl)pyrimidin-2-amine] are 0.008 µM, 0.008 µM, 0.036 µM, 95 nM and 3.79 µM.
Taken in the same sequence, the figures for `CC(C)N1CCOc2c(F)cc(-c3nc(Nc4ccc(N5CCS(=O)(=O)CC5)c(F)c4)ncc3F)cc21` [Compound 465, 4-(2-fluoro-4-((5-fluoro-4-(8-fluoro-4-isopropyl-3,4-dihydro-2H-benzo[b][1,4]oxazin-6-yl)pyrimidin-2-yl)amino)phenyl)thiomorpholine 1,1-dioxide] were 0.037 µM, 0.123 µM, 0.066 µM, 80 nM and 0.397 µM.
For the molecule `CC(C)N1CCOc2c(F)cc(-c3nc(Nc4ccc(C5CCN(C(=O)CN(C)C)CC5)c(F)c4)ncc3F)cc21` [Compound 451, 2-(dimethylamino)-1-(4-(2-fluoro-4-((5-fluoro-4-(8-fluoro-4-isopropyl-3,4-dihydro-2H-benzo[b][1,4]oxazin-6-yl)pyrimidin-2-yl)amino)phenyl)piperidin-1-yl)ethan-1-one], the IC50 at CDK4 is 0.028 µM; at CDK6 it was 0.027 µM; on FMS kinase, 0.028 µM; in the assay on MCF-7 (setting [1]) it was 30 nM; at PI3Kδ kinase it was more than 50 µM.
As for `CN1CCOc2c(F)cc(-c3nc(Nc4ccc(N5CCC(N(C)C)CC5)c(F)c4)ncc3F)cc21` [Compound 467, N-(4-(4-(dimethylamino)piperidin-1-yl)-3-fluorophenyl)-5-fluoro-4-(8-fluoro-4-methyl-3,4-dihydro-2H-benzo[b][1,4]oxazin-6-yl)pyrimidin-2-amine], the half-inhibitory concentration (IC50) on CDK4 came out at 0.004 µM; against CDK6, 0.005 µM; against FMS kinase it was 0.014 µM; with MCF-7 (setting [1]) it was 185 nM; on PI3Kδ kinase, 2.43 µM.
In the same order, the values of `CC(C)N1CCOc2c(F)cc(-c3nc(Nc4ccc(N5CCN(C(=O)CN(C)C)CC5)cn4)ncc3F)cc21` [Compound 441, 2-(dimethylamino)-1-(4-(6-((5-fluoro-4-(8-fluoro-4-isopropyl-3,4-dihydro-2H-benzo[b][1,4]oxazin-6-yl)pyrimidin-2-yl)amino)pyridin-3-yl)piperazin-1-yl)ethan-1-one] are 0.001 µM, 0.0006 µM, 0.526 µM, 95 nM and more than 50 µM.
For `CC(C)N1CCOc2c(F)cc(-c3nc(Nc4cnn(C5CCNCC5)c4)ncc3F)cc21` [Compound 448, 5-fluoro-4-(8-fluoro-4-isopropyl-3,4-dihydro-2H-benzo[b][1,4]oxazin-6-yl)-N-(1-(piperidin-4-yl)-1H-pyrazol-4-yl)pyrimidin-2-amine], the half-maximal inhibitory concentration (IC50) was 0.0032 µM against CDK4, 0.008 µM on FMS kinase, 50 nM with MCF-7 (setting [1]) and 8.02 µM at PI3Kδ kinase.
`CCN1CCN(C(=O)c2ccc(Nc3ncc(F)c(-c4cc(F)c5c(c4)N(C(C)C)CCO5)n3)cc2F)CC1` [Compound 464, (4-ethylpiperazin-1-yl)(2-fluoro-4-((5-fluoro-4-(8-fluoro-4-isopropyl-3,4-dihydro-2H-benzo[b][1,4]oxazin-6-yl)pyrimidin-2-yl)amino)phenyl)methanone]: the IC50 on CDK4 was 0.0085 µM; on CDK6, 0.022 µM; against FMS kinase, 0.042 µM; with MCF-7 (setting [1]), 85 nM; in the assay with DU4475 (DU-4475, DU4475 cells, treated for 24-168 hours, read-out: IC50 (nM) DU4475) it was 80 nM.

The values are drawn from patent US11174252B2, “Heterocyclic compounds as kinase inhibitors” (priority 2018, dated 2021).
